In this assay the target is T1, human PD-1 / PD-L1-Ig binding on Jurkat cell line over-expressing human PD-1 (Jurkat-PD-1) (Homo sapiens, UniProt Q15116).
T1 construct: expressed in transfected cells; host or cells: Jurkat
Nature of the assay: Jurkat-PD-1 Cell Binding High-Content Screening Assay (CBA). The note with it: Jurkat-PD-1 cells, PE-labeled PD-L1-Ig 20 nM final; read-out: Jurkat HPD1_PDL1 IC50. The class given is cell-based. In outline: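 Read-out: high-content imaging of PE-tagged PD-L1-Ig bound to Jurkat cells overexpressing human PD-1, after fixation with 4% paraformaldehyde and Hoechst 33342 nuclear staining. Ligand was used at 20 nM final for 1 hour, after a 2 h compound exposure at 37° C in serum-containing DMEM.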

Where a SMILES comes first, the peptide text is derived from it. Bridges are numbered along the chain shown (N, C = ends). [ ]: non-standard residue; d: D form. The star is where a group is joined. Bip = N[C@@H](Cc1ccc(-c2ccccc2)cc1)C(=O)O; Phe(3-Me) = Cc1cccc(C[C@H](N)C(=O)O)c1; 3Pal = N[C@@H](Cc1cccnc1)C(=O)O; 4Pal = N[C@@H](Cc1ccncc1)C(=O)O; Cha = N[C@@H](CC1CCCCC1)C(=O)O; Carboxymethyl = O=C(O)C*; Orn = NCCC[C@H](N)C(=O)O; Dab = NCC[C@H](N)C(=O)O; Dap = NC[C@H](N)C(=O)O

T1 sequence (Q15116 25-288): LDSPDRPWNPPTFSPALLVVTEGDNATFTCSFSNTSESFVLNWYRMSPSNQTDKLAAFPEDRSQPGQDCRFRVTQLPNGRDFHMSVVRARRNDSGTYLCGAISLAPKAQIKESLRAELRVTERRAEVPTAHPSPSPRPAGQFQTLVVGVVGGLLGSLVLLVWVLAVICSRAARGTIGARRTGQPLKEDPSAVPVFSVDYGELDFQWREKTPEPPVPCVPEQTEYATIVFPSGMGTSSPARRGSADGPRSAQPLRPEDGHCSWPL

Turning to `CC(C)C[C@@H]1NC(=O)[C@H](CCN)NC(=O)[C@@H](CC(C)C)NC(=O)[C@H](CN)NC(=O)[C@H](CCCNC(=N)N)NC(=O)[C@H](Cc2ccc(-c3ccccc3)cc2)NC(=O)[C@H](C(C)C)NC(=O)[C@H](Cc2c[nH]c3ccccc23)NC(=O)[C@H](CC(=O)O)NC(=O)[C@H](Cc2ccc(O)cc2)NC(=O)[C@H](CC(N)=O)NC(=O)CSC[C@@H](C(=O)N[C@@H](C)C(N)=O)NC(=O)[C@H]([C@@H](C)O)NC(=O)[C@H](C(C)C)NC1=O` [Compound 1009] ({CH2CO}-NYDWV[Bip]R[Dap][dL][Dab]LVTCA-NH2; thioether N-14), the IC50 was 52.9 nM. With `Cc1cccc(C[C@@H]2NC(=O)[C@H](CC(=O)O)NC(=O)[C@H](Cc3ccc(OCC(=O)O)cc3)NC(=O)[C@H]([C@@H](C)O)NC(=O)CSC[C@@H](C(N)=O)NC(=O)[C@H](CCC(N)=O)NC(=O)[C@H](C(C)C)NC(=O)[C@H](CC3CCCCC3)NC(=O)[C@H](CCN)NC(=O)[C@@H](CC(C)C)NC(=O)[C@H](CCCN)NC(=O)[C@H](Cc3ccc(OCC(=O)O)cc3)NC(=O)[C@H](Cc3ccc(-c4ccccc4)cc3)NC(=O)[C@H](Cc3ccc(OCC(=O)O)cc3)NC2=O)c1` [Compound 1799] ({CH2CO}-TY(Carboxymethyl)D[Phe(3-Me)]Y(Carboxymethyl)[Bip]Y(Carboxymethyl)[Orn][dL][Dab][Cha]VQC-NH2; thioether N-14), the IC50 came to 33.5 nM. The figure for `CC(C)C[C@H]1NC(=O)[C@H](CCCN)NC(=O)[C@H](CCC(=O)O)NC(=O)[C@H](Cc2ccc(-c3ccccc3)cc2)NC(=O)[C@H](C(C)C)NC(=O)[C@H](Cc2cccnc2)NC(=O)[C@H](CC(=O)O)NC(=O)[C@H](Cc2ccc(OCC(=O)O)cc2)NC(=O)[C@H](CN)NC(=O)CSC[C@@H](C(=O)N[C@@H](C)C(N)=O)NC(=O)[C@H]([C@@H](C)O)NC(=O)[C@H](C(C)C)NC(=O)[C@H](CC2CCCCC2)NC(=O)[C@H](CCN)NC1=O` [Compound 2156] ({CH2CO}-[Dap]Y(Carboxymethyl)D[3Pal]V[Bip]E[Orn][dL][Dab][Cha]VTCA-NH2; thioether N-14) is 322 nM; for `Cc1cccc(C[C@@H]2NC(=O)[C@H](CC(=O)O)NC(=O)[C@H](Cc3ccc(OCC(=O)O)cc3)NC(=O)[C@H](Cc3cccnc3)NC(=O)CSC[C@@H](C(=O)NCC(N)=O)NC(=O)[C@H](CO)NC(=O)[C@H](C(C)C)NC(=O)[C@H](CC3CCCCC3)NC(=O)[C@H](Cc3cnc[nH]3)NC(=O)[C@@H](CC(C)C)NC(=O)[C@H](CCCN)NC(=O)[C@H](C(C)C)NC(=O)[C@H](Cc3ccc(-c4ccccc4)cc3)NC(=O)[C@H](CC(C)C)NC2=O)c1` [Compound 1582] ({CH2CO}-[3Pal]Y(Carboxymethyl)D[Phe(3-Me)]L[Bip]V[Orn][dL]H[Cha]VSCG-NH2; thioether N-14) it is 36.2 nM; for `Cc1cccc(C[C@@H]2NC(=O)[C@H](CC(=O)O)NC(=O)[C@H](Cc3ccc(OCC(=O)O)cc3)NC(=O)[C@H](Cc3ccncc3)NC(=O)CSC[C@@H](C(=O)N[C@@H](CCN)C(N)=O)NC(=O)[C@H](CO)NC(=O)[C@H](C(C)(C)O)NC(=O)[C@H](CC3CCCCC3)NC(=O)[C@H](CCN)NC(=O)[C@@H](CC(C)C)NC(=O)C(C3CCNCC3)NC(=O)[C@H](Cc3ccc(OCC(=O)O)cc3)NC(=O)[C@H](Cc3ccc(-c4ccccc4)cc3)NC(=O)[C@H](Cc3ccc(OCC(=O)O)cc3)NC2=O)c1` (stereo partly drawn) [Compound 2083] it is 912 nM. For the molecule `CC(C)C[C@H]1NC(=O)[C@H](CCCN)NC(=O)[C@H](CCCCN)NC(=O)[C@H](Cc2ccc(-c3ccccc3)cc2)NC(=O)[C@H](C(C)C)NC(=O)[C@H](Cc2c[nH]c3ccccc23)NC(=O)[C@H](CC(=O)O)NC(=O)[C@H](Cc2ccncc2)NC(=O)[C@H](CN)NC(=O)CSC[C@@H](C(=O)N[C@@H](CCCN)C(N)=O)NC(=O)[C@H](CCCN)NC(=O)[C@H](C(C)C)NC(=O)[C@H](CC2CCCCC2)NC(=O)[C@H](CCN)NC1=O` [Compound 2253] ({CH2CO}-[Dap][4Pal]DWV[Bip]K[Orn][dL][Dab][Cha]V[Orn]C[Orn]-NH2; thioether N-14), the IC50 was 138 nM.

What is called IC50 is the concentration needed to halve the response being measured.

Source of the values: patent US20250163104A1, “MACROCYCLIC IMMUNOMODULATORS” (priority 2021, published 2025).
